This is an account of results in patent publication US7291217B2, “Non-toxic corrosion-protection pigments based on rare earth elements” (University of Dayton, priority 2002, dated 2007).

The conditions of data set [1]: reduction to the trivalent ion, cited from earlier work; for oxidation-reduction potential: in acid solution (pH 0).
Data set [2] in a line: pH change on placing the compound into deionized water of pH 7. The class given is physicochemical. Particulars: simple laboratory experiment. From the text: A simple laboratory experiment confirms this effect. […] However, if icosahedral Ce(NO3)6^2− (note that this ion contains no hydroxide) is placed into deionized water of pH 7, a quite remarkable pH drop to −1 can be observed. The released tetravalent cerium ions will scavenge virtually all of the available OH^− ions in solution (possibly even degrading H2O itself to obtain OH^−), resulting in this dramatic pH drop.

For data set [3] the following is noted: in water; resulting from the reported solubility product; cited from earlier work.

Turning to `[Tb+4]` [Tb^+4], the calculated redox potential in data set [1] (in acidic solution, Nugent et al. 1971) is on record as 3.2 V. Regarding `[Ce+4].[OH-].[OH-].[OH-].[OH-]` [ceric hydroxide, reference compound], the “pH after placing into deionized water of pH 7” value in data set [2] is listed as “only a minor pH change”. The cerium solubility entry in data set [3] is reported as “approximately 5×10^−12 moles/liter Ce^+4”. As to `O=[N+]([O-])O.O=[N+]([O-])O.O=[N+]([O-])O.O=[N+]([O-])O.O=[N+]([O-])O.O=[N+]([O-])O.[Ce]` [Ce(NO3)6^2−], the “pH after placing into deionized water of pH 7” value in data set [2] is −1. Take `[Cr+6]` [Cr^+6, reference compound]: in data set [1], the oxidation-reduction potential was 1.36 V.

As to `[Ce+4]` [Ce^+4], the oxidation-reduction potential in data set [1] is 1.72 V.
